Data reported in PMC8608967, “KDS2010, a Newly Developed Reversible MAO-B Inhibitor, as an Effective Therapeutic Candidate for Parkinson’s Disease” (Neurotherapeutics, 2021).

Assays:
[1] = tested on: MPTP-induced PD mouse model; assay: MPTP mouse model: vertical grid test and coat hanger test; format: in vivo; conditions: MPTP mice; long-term (30-day) treatment, 10 mg/kg/day oral
Description: Group allocation and outcome assessment, but not the conduct of experiments and data analysis, were performed in a blinded manner. Throughout the study, confounders were not controlled. An acclimation period of 7 days was allowed for animals to stabilize in a new environment before model induction. […] Treatment drugs were dissolved in 100 μL of water and total dose (in mg) was calculated according to individual body weight (in kg).
The MPTP model was established using the acute regimen of four intraperitoneal (i.p.) injections of MPTP-HCl (M0896, Sigma Aldrich, 2 mg/mL in saline, 20 mg/kg for one injection) at 2-h intervals.
Motor deficits of the MPTP-induced PD mouse model were assessed using the vertical grid test as described in the previous study [23]. Briefly, after 2 days of habituation to the testing apparatus, individual mice were gently placed 3 cm from the top, facing upward, and allowed to turn around and climb down. We also performed a coat hanger test as described [24–26]. Briefly, a mouse was gently hung on the middle of a coat hanger and allowed to ascend to the top. Performance was graded as follows: 0, falling off the hanger within 20 s; 1, moving to the side-bar of the hanger; 2, reaching the side-bar of the hanger; 3, climbing the side-bar of the hanger; 4, moving to the top of the hanger; 5, climbing and reaching the safe zone. The test was performed twice and each trial lasted a maximum of 3 min.

6-OHDA model rats = assay: 6-OHDA rat model: stepping test, rotarod test, TH; conditions: 6-OHDA rats; 10 mg/kg/day for 15 days starting 17 days post-6-OHDA
Description: (§1) Group allocation and outcome assessment, but not the conduct of experiments and data analysis, were performed in a blinded manner. Throughout the study, confounders were not controlled. An acclimation period of 7 days was allowed for animals to stabilize in a new environment before model induction. […] Treatment drugs were dissolved in 100 μL of water and total dose (in mg) was calculated according to individual body weight (in kg). […] An experiment was halted if body weight decreased by 20% or more after MPTP or 6-hydroxydopamine (6-OHDA) treatment.
Finally, the 6-OHDA model was prepared as previously described [21]. Under general anesthesia, all rats received unilateral injections of 8 μg 6-OHDA (Sigma Aldrich) in 4 μL saline/0.1% ascorbic acid into the right medial forebrain bundle (AP − 2.2 mm and L + 1.5 mm relative to the bregma, V − 8.0 mm from the dura) [19], with the tooth bar set at + 4.5 mm.
Motor deficits of 6-OHDA and A53T mutant α-synuclein model rats were assessed as previously described with slight modifications [27]. Briefly, both hind limbs and one forelimb were firmly fixed in the two hands of the experimenter, and the rat was lowered over a treadmill moving at rate of 18 cm/s such that the body remained stationary while the free forelimb was allowed to spontaneously touch the moving treadmill track for 10 s. All experimental sessions were video recorded to count the number of adjusting steps taken in the backward direction. The number of adjusting steps was averaged across four trials in each session.
In addition, impaired motor coordination of 6-OHDA model rats was examined using the rotarod test as previously described with slight modifications [28]. […] Before the first rotarod test, all rats were pre-trained until riding time reached 60 s at 10 rpm (B.S Technolab, Seoul, Korea). Each session consisted of two trials, and riding time was averaged to obtain pre-6-OHDA, 0d, 7d, and 15d results.

[2] = tested on: MPTP-induced PD mouse model; assay: MPTP mouse model: TH (DAB) and Nissl staining of SNpc and striatum; conditions: MPTP mice; long-term treatment, 29 days before MPTP and one more day after, 10 mg/kg/day oral; 10 mg/kg/day
Description: as §1
The MPTP model was established using the acute regimen of four intraperitoneal (i.p.) injections of MPTP-HCl (M0896, Sigma Aldrich, 2 mg/mL in saline, 20 mg/kg for one injection) at 2-h intervals. All MPTP use and safety precautions were strictly followed as described [18].
Coronal sections for striatum and SNpc were prepared at 30-μm thickness and immunostained using a DAB staining kit (TL-060-QHD, Thermo, MA, USA). […] After washing in PBS 3 times, sections were incubated in Primary Antibody Amplifier Quanto (TA-060-QPB, Thermo) for 5 min, washed again in PBS, incubated in HRP Polymer Quanto for 1 h, washed 4 times in PBS, and dipped for 30 s in a 1:10 mixture of DAB + chromogen and DAB + substrate buffer (K3468, Dako, Denmark). Finally, sections were washed, immersed in mounting medium, and dried.
Every 6th section including the SN was stained with anti-TH and the number of TH-positive neurons counted under low magnification (× 10) from the rostral tip of the SNpc to the caudal end of the substantia nigra pars reticulate (SNpr). […] The total number of neurons per section was estimated according to the optical fractionator formula. The total number of SNpc neurons in a hemisphere was then obtained by multiplying the number counted using Stereo Investigator 11 by the slice interval (six).
Other 30-μm-thick coronal sections from the SNpc were Nissl stained to assess viable cell number. Briefly, slices were stained with 0.1% cresyl violet solution for 3 min, rinsed with distilled water, and placed in a chamber filled with 70% ethanol for 1 min. […] A series of bright field images were obtained using an Olympus microscope. The slices were classified according to AP coordinates and Nissl-positive neurons counted using the counting tool of ImageJ (NIH, MD, USA).

[3] = H2O2 scavenging capacity test (Amplex red/HRP); conditions: 10 min incubation with H2O2 at RT
Description: To determine the H2O2 scavenging capacity of the test compound, H2O2 concentration was measured using the modified Amplex red/horseradish peroxidase (HRP) detection method as described previously. Briefly, a H2O2 solution was incubated with the test compound for 10 min at room temperature (RT), and then the reaction solution containing 20 mM Amplex red and 200 U/mL HRP was added. The absorbance was measured at 570 nm using a microplate reader. The H2O2 scavenging capacities were compared to a blank negative control and to the known H2O2 scavenger epigallocatechin gallate (EGCG) as a positive control.

| Compound | vertical grid test: time to turn [1] | vertical grid test: total time [1] | stepping test: stepping behavior deficit of the contralateral forepaw (6-OHDA model rats) | loss of TH-positive cells in the SNpc [2] | H2O2 scavenging effect [3] |
| --- | --- | --- | --- | --- | --- |
| C#CCN(C)[C@H](C)Cc1ccccc1 [selegiline, reference compound] | reduced | reduced | did not improve | non-significant increasing tendency | – |
| epigallocatechin-3-gallate [EGCG, reference compound] | – | – | – | – | dose-dependent effect of H2O2 scavenging |
